The results in this text go back to US7678557B2, “Methods for the accumulation and retention of immune-enhancing, bacterial-derived ribonucleotides (ORN) in bacteria” (priority 1993, dated 2010).

The test system of the assay is L. monocytogenes. As to the kind of experiment: Disk diffusion assay of antibiotic susceptibility before and after 6 serial washes in PBS (Example 9). The assay is classed as cell-based. Conditions: disk content per antimicrobial, average of 6 experiments (SD). The text has this: The disk diffusion assay was used to determine the susceptibility of vegetative forms of L. monocytogenes, before and after 6 serial 20-min washes in PBS. (See Bauer, A, Kirby, W, Sherris, J, Turck, M, 1966 Antibiotic Susceptibility Testing by a Standardize Single Disk Method, Amer J Clin Path 36:41-44).
Data are averages of 6 experiments. SD is in parentheses.
Background: Agar diffusion results depend on both activity and mobility in agar.

[1] abbreviates: After 6 Washes (20 min each in PBS), L. monocytogenes.
Where [2] appears, read: Before Washing, vegetative L. monocytogenes.

`CC1(C)S[C@@H]2[C@H](NC(=O)[C@H](N)c3ccccc3)C(=O)N2[C@H]1C(=O)O` [Ampicillin]: the “Diameter of Zone of Inhibition” value under setting [1] is 30 mm (3.6) and the “Diameter of Zone of Inhibition” value under setting [2] is reported as 32 mm (3.8).

On to `NC[C@H]1O[C@H](O[C@H]2[C@H](O)[C@@H](O[C@H]3O[C@H](CO)[C@@H](O)[C@H](N)[C@H]3O)[C@H](N)C[C@@H]2N)[C@H](O)[C@@H](O)[C@@H]1O` [Kanamycin], for which the “Diameter of Zone of Inhibition” value under setting [2] is listed as 11 (2.66) mm. `CN(C)[C@@H]1C(O)=C(C(N)=O)C(=O)[C@@]2(O)C(O)=C3C(=O)c4c(O)cccc4[C@@](C)(O)[C@H]3C[C@@H]12` [Tetracycline]: the “Diameter of Zone of Inhibition” value is, setting by setting: under setting [1], 45 (6.3) mm; under setting [2], 40 (5.0) mm.

As for `CN[C@H](CC(C)C)C(=O)N[C@H]1C(=O)N[C@@H](CC(N)=O)C(=O)N[C@H]2C(=O)N[C@H]3C(=O)N[C@H](C(=O)N[C@H](C(=O)O)c4cc(O)cc(O)c4-c4cc3ccc4O)[C@H](O)c3ccc(c(Cl)c3)Oc3cc2cc(c3O[C@@H]2O[C@H](CO)[C@@H](O)[C@H](O)[C@H]2O[C@H]2C[C@](C)(N)[C@H](O)[C@H](C)O2)Oc2ccc(cc2Cl)[C@H]1O` [Vancomycin], the “Diameter of Zone of Inhibition” value under setting [1] is reported as 30 (4.2) mm and the “Diameter of Zone of Inhibition” value under setting [2] is listed as 25 (3.7) mm.

For Polymixin B, under setting [2], the “Diameter of Zone of Inhibition” value came to 0 mm.
